Like-named read-outs stand apart in the source and are kept apart here.
Tests used:
[1] = tested on: patients with ocular disease (Geographic Atrophy, AMD); settings: cited from earlier work; for benefit in trials: GA trials, systemic or IVT administered agents; for Status (clinical trial outcome): Table 1, ocular disease indication
GA patients [2] = settings: 2 mg q4w, cited from earlier work
[3] = FDA prescribing information; cited from earlier work
C5 = C5 (Homo sapiens, UniProt P01031); settings: report from publications; read-out: affinity for C5; cited from earlier work
C5, sequence (P01031 19-1676): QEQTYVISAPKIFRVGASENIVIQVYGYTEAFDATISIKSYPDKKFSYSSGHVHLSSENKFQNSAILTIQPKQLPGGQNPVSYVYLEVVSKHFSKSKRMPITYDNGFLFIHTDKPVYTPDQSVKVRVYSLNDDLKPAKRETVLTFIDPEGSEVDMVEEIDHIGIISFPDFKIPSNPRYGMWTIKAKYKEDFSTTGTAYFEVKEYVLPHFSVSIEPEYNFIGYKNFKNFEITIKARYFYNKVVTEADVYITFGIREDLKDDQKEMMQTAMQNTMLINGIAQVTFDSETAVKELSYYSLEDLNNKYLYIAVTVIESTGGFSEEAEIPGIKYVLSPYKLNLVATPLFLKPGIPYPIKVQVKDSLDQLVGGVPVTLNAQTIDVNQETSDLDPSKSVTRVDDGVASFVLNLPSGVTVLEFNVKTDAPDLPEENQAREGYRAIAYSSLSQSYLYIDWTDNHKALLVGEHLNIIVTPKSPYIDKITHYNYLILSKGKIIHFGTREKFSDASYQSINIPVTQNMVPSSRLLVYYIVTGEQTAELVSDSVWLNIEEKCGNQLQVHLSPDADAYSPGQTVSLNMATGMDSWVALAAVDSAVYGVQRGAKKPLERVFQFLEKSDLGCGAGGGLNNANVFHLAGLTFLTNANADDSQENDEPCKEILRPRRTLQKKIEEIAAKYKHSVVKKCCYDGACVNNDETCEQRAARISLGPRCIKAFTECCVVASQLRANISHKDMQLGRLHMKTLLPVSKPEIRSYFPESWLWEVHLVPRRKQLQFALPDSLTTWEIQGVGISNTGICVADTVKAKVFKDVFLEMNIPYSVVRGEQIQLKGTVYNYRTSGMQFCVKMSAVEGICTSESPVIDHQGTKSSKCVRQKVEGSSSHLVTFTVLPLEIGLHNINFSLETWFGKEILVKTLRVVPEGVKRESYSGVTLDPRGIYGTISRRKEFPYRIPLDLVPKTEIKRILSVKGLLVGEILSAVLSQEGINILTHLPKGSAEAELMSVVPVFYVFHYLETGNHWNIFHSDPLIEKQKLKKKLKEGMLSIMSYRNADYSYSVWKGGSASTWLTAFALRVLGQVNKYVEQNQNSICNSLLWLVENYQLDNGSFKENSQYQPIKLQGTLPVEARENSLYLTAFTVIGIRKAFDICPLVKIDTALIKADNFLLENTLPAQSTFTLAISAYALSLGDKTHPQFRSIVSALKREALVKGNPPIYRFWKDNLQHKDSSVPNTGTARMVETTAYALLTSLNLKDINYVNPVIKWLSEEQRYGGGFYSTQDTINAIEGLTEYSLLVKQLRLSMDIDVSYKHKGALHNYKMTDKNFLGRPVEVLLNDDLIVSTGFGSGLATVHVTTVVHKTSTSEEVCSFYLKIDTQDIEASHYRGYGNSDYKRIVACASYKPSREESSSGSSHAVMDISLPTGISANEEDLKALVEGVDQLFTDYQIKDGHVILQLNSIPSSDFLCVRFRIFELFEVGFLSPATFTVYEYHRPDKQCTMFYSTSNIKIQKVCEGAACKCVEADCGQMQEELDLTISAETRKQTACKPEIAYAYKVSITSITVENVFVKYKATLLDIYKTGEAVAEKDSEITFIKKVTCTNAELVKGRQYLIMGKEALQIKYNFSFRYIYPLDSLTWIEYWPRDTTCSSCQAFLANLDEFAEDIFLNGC

Bb in aqueous humor [4] = test: CHROMA/SPECTRI Phase 3 biomarker substudy: response to lampalizumab by aqueous humor Bb; assay type: in vivo, human; settings: Month 6
Protocol: Patient level data for patients in the sham, q4w, and […] lampalizumab Phase 3 biomarker study, as reported by Edmonds et al (Edmonds R. et al., “Complement pathway Inhibition by Lampalizumab: Analysis of Data From Chroma and Spectri Phase III Clinical Trials.” Ophthalmol Sci. 2023; 3 (3): 100286. Published 2023 Feb. 13), in Supplemental FIG. 6 of Bb (ng/mL) in aqueous humor was measured and converted into numerical data points. To verify accuracy of the plotted data points, mean and standard deviation was calculated using the plotted data and compared to the reported mean and standard deviation in Edmonds et al. Values were in good agreement.
(§1) In addition to the overall efficacy analyses, a biomarker sub study was conducted with about 100 patients (of which 33 from sham, q4w, q6w) with biomarker sampling at baseline and Month 6. Multiple complement factors were measured, including CFB, Bb, FD, C3, C3b/iC3b/C3d, C4, C4b/C4c. Results were described in Edmonds et al. Individual data points for the measured ocular proteins were reported in figures (Edmonds at FIG. 4 and Supplemental FIGS. 4-10) in addition to cohort level metrics (baseline and efficacy at 6 months).
In Edmonds, the ratio of Bb/CFB was used to assess complement activity and concluded that dosing with higher concentrations or more frequent dosing would not result in greater inhibitor of the complement pathway as there is no meaningful correlation between Bb: CFB ratio and percent change in aqueous humor from baseline to week 24.
To reassess the data & results described in Edmonds according to the categorization described herein, the data points for Bb at baseline and Month 6 in Supplemental FIG. 6 were converted into numerical values based on measurement relative to the axes and categorized as follows:
• 1. […] Ineffective lampalizumab administration-Hyper baseline, hyper at Month 6 and <50% reduction in Bb at Month 6 from baseline Bb • 3.

[5] = tested on: patients with geographic atrophy; test: CHROMA + SPECTRI Phase 3 trials: change in GA area from baseline; assay type: in vivo, human
Protocol: The CHROMA & SPECTRI Phase 3 trials evaluated lampalizumab (anti-fD fab) intravitreally administered IVT 10 mg at q4w or q6w intervals compared to sham (untreated) controls. Both studies had identical designs, and each enrolled a total of about 900 patients (300 per cohort, lampa q4w, lampa […], etc). The trial is described in Holz et al. (Holz F G et al. “Efficacy and Safety of Lampalizumab for Geographic Atrophy Due to Age-Related Macular Degeneration: Chroma and Spectri Phase 3 Randomized Clinical Trials”. JAMA Ophthalmol. 2018; 136 (6): 666-677)
as §1
As “control” prediction methodology, the pooled progression for sham, q4w, and q6w at 12 months as reported in Edmonds of the overall Phase 3 was divided by 2 to estimate the progression of a cohort of any patients at 6 months.

Bb in aqueous humor [6] = settings: essentially all individual patients treated, q4w and q6w (Edmonds at FIG. 4B); cited from earlier work
[7] = tested on: patients with geographic atrophy; settings: cited from earlier work
[8] = tested on: complement component Ba in aqueous humor; test: Real world SYFOVRE study: response category by aqueous humor Ba; assay type: in vivo, human
Protocol: (§2) Study Description: This study included GA anatomic (OCT, Specralis) & treatment administration data (treatment, injection date) and aqueous humor (AH) samples from 9 eyes of 5 patients with bilateral GA without CNV, treated with SYFOVRE® per USPI at a private retinal practice in the United States of America. The study was performed in accordance with the tenets of the Declaration of Helsinki and the Medical Research Involving Human Subjects Act (WMO) and was approved by the local Institutional Review Board. Written informed consent was obtained from all participants.
Assessment of biomarkers of AH concentration of complement component Ba. Aqueous humor sampling of the eyes was conducted by anterior chamber paracentesis using a 30-gauge needle attached to a 1-ml syringe. Samples of up to 150 μl were obtained at baseline (prior to first administration of SYFOVRE®) and after the first, second, or third administration of SYFOVRE®. Quantitative measurement of AH Ba was carried out using a direct capture immunoassay (Micro Vue; Qidel Corporation). Samples were transferred to sterile polypropylene tubes immediately after collection and stored at −80° C. until analysis was performed.
Categorization of eyes into hyper/homeo/hypo groups was performed: Hyper was ≥20 ng/mL Ba, Homeo was <20 to ≥10 ng/mL Ba, Hypo was <10 ng/mL Ba.
Categorization of response to SYFOVRE® based on biomarker criteria was performed.

[9] = tested on: eyes of patients with bilateral GA without CNV; test: Real world SYFOVRE study: area of RPE loss by OCT; assay type: in vivo, human; settings: post treatment (70 days)
Protocol: as §2
For each individual eye, assessment of GA progression between baseline and the measurement of the post treatment ocular proteomics was performed based on OCT images taken at the relevant visits (baseline and visits when AH sample taken). OCT analysis of retinal atrophy was performed using automated measurement of area of RPE loss, with a foveally centered, ETDRS matched analysis performed by RetinAI. Given variability in image centering and quality between visits, for a given eye, only those regions of the retina that had consistent OCT imaging & analysis coverage at each relevant timepoint were used to calculate change in area of retinal atrophy.

[10] = tested on: patients with bilateral GA; test: FILLY Phase 2 study eye vs. fellow eye analysis; assay type: in vivo, human; settings: baseline to month 12
Protocol: Apellis sponsored FILLY was a phase 2 trial evaluating efficacy of intravitreal pegcetacoplan complement C3 and C3b inhibitor on slowing GA progression, which included only one eye per participant in the treatment group.
A post hoc analysis of phase 2 FILLY trial data comparing study (treated monthly, treated every other month and sham-treated) and fellow (untreated) eyes in a split-person study design was performed and the results published (Fu et al, 2023, hereinafter “Fu”). This analysis included 288 eyes from 144 patients with bilateral GA from the FILLY phase 2 trial (Clinical Trials identifier: NCT02503332). Only patients with bilateral GA and without evidence of choroidal neovascularization in either eye were included. Patient study eyes were treated with sham injections or with pegcetacoplan monthly (PM) or every other month (PEOM) for 12 months. […] Fu specifically interpreted the data as showing “on an individual patient level, changes in GA area for the fellow eye exceeded those in the study eye for most patients in the pegcetacoplan treatment groups, while changes in the sham group approached randomness between study and fellow eyes.” Fu et al. (Fu D J et al., “Evaluating the Effects of C3 Inhibition on Geographic Atrophy Progression from Deep-Learning OCT Quantification: A Split-Person Study”. Ophthalmol Ther. 2023). […]

[11] = tested on: patients with bilateral GA; settings: FILLY post hoc analysis (Fu), 12 months; cited from earlier work
C3 = C3 (Homo sapiens, UniProt P01024); settings: report from publications; read-out: affinity for C3; cited from earlier work
C3, sequence (P01024 23-1663): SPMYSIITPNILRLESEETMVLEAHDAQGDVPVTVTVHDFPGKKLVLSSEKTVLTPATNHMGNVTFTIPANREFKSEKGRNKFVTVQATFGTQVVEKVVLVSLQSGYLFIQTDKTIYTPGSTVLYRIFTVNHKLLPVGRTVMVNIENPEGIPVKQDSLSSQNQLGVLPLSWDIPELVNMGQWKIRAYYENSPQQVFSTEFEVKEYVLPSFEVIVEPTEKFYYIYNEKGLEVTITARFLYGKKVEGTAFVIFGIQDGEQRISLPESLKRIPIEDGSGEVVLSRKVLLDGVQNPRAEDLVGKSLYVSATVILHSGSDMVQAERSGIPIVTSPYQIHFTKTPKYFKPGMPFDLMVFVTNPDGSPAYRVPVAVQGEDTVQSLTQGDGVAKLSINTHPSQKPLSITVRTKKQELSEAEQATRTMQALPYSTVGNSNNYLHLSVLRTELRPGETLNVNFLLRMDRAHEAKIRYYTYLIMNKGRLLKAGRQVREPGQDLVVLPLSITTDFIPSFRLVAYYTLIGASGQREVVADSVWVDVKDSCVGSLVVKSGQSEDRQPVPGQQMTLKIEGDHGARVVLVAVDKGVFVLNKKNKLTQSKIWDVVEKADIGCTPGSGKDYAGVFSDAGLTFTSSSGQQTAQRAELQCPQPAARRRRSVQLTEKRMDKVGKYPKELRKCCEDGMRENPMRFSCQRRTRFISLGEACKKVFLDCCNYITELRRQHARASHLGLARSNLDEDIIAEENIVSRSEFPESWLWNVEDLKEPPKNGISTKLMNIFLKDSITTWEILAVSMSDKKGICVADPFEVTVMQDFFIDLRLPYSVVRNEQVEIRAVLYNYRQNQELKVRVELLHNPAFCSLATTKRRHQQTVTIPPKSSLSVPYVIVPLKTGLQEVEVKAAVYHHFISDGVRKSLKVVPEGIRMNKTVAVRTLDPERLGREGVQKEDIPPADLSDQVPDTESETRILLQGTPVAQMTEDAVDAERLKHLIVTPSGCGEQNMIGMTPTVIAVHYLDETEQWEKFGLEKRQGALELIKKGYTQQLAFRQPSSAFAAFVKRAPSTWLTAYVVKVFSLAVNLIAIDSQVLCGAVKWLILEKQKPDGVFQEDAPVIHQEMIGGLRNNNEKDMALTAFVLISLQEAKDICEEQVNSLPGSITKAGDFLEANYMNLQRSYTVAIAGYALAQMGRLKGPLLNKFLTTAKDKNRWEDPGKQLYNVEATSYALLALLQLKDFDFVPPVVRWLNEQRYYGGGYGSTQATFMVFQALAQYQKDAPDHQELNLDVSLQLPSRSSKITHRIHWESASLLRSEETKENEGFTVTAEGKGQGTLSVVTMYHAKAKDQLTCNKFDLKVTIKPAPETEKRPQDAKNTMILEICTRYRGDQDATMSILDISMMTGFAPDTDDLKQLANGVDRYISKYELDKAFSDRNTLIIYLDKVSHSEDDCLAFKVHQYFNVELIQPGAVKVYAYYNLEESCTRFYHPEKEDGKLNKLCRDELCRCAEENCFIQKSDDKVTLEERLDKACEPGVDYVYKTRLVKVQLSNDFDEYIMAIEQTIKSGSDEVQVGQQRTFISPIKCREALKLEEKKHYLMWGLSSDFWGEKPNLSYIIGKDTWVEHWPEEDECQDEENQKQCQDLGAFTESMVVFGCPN

GA patients [12] = settings: implication of FDA approved prescribing information; cited from earlier work
[13] = in vivo; cited from earlier work

[2H]C([2H])([2H])C(/C=C/C=C(C)/C=C/C1=C(C)CCCC1(C)C)=C\COC(C)=O [Alkeus]
benefit in trials [1]: failed to show benefit

CC(=O)c1nn(CC(=O)N2C[C@H](F)C[C@H]2C(=O)Nc2cccc(Br)n2)c2ccc(-c3cnc(C)nc3)cc12 [danicopan]
benefit in trials [1]: failed to show benefit

avacincaptad pegol [IZERVAY®]
reduction in mean rate of GA growth vs. sham at 12 months (GA patients [2]; GATHER 1): 27.4%
reduction in mean rate of GA growth vs. sham at 12 months (GA patients [2]; GATHER 2): 14%
geometric mean half-life of elimination (t1/2) [3]: 288 h
Kd (C5): ~3 nM

lampalizumab: anti-fD fab, intravitreally administered 10 mg at q4w or q6w
Post treatment response: Effective (number of eyes) (Bb in aqueous humor [4]; Q4w, 35 eyes, 14 hyper): 6
Of Hyper; Effective (Bb in aqueous humor [4]; Q4w): 43%
Post treatment response: Effective (number of eyes) (Bb in aqueous humor [4]; Q6w, 32 eyes, 10 hyper): 2
Of Hyper; Effective (Bb in aqueous humor [4]; Q6w): 20%
Change in GA area from baseline: (Edmonds et al) Biomarker pooled cohort at 48 w divided by 2 ([5]; Q4w): 1.08
Change in GA area from baseline: CHROMA + SPECTRIA Pooled topline extrapolate to 24 w ([5]; Q4w): 1.027
Change in GA area from baseline: (Edmonds et al) Biomarker pooled cohort at 48 w divided by 2 ([5]; Q6w): 1.03
Change in GA area from baseline: CHROMA + SPECTRIA Pooled topline extrapolate to 24 w ([5]; Q6w): 1.028
Bb/CFB in aqueous humor (Bb in aqueous humor [6]): decreases in Bb/CFB
Change in GA area from baseline: (Edmonds et al) Biomarker pooled cohort at 48 w ([7]; Q4w): 2.16
Change in GA area from baseline: Actual Data from (Edmonds) Biomarker pooled cohort at 24 w ([7]; Q4w): 1.0
Change in GA area from baseline: CHROMA + SPECTRI Pooled topline at 48 weeks ([7]; Q4w): 2.054
Change in GA area from baseline: (Edmonds et al) Biomarker pooled cohort at 48 w ([7]; Q6w): 2.06
Change in GA area from baseline: Actual Data from (Edmonds) Biomarker pooled cohort at 24 w ([7]; Q6w): 1.04
Change in GA area from baseline: CHROMA + SPECTRI Pooled topline at 48 weeks ([7]; Q6w): 2.055
benefit in trials [1]: failed to show benefit
Status (clinical trial outcome) [1]: failed to meet

pegcetacoplan [SYFOVRE®]
Response Category ([8]; Eye ID 001, OD, baseline category Hyper): Effective Complement Inhibition
Response Category ([8]; Eye ID 002, OS, baseline category Hypo): Not
Response Category ([8]; Eye ID 003, OD, baseline category Hyper): Not
Response Category ([8]; Eye ID 004, OS, baseline category Hyper): Not
Response Category ([8]; Eye ID 005, OD, baseline category Homeo): Not
Response Category ([8]; Eye ID 006, OS, baseline category Homeo): Not
Response Category ([8]; Eye ID 007, OD, baseline category Hypo): Not
Response Category ([8]; Eye ID 008, OS, baseline category Hypo): Not
Response Category ([8]; Eye ID 009, OD, baseline category Hypo): Not
RPE depletion area post treatment ([9]; Eye ID 001, OD, hyper baseline, effective complement inhibition, baseline 6.57 mm^2): 6.45 mm^2
RPE depletion area post treatment ([9]; Eye ID 002, OS, hypo baseline, baseline 5.8 mm^2): 6.75 mm^2
>=50% slowing study vs. fellow, % ([10]; PEOM (every other month), 35 eyes): 20%
>=50% slowing study vs. fellow, % ([10]; PM (monthly), 36 eyes): 53%
spatial GA progression compared to untreated fellow eyes [11]: reduction in spatial GA progression
Kd (C3): 15 nM
expected average efficacy, slowing for all indicated GA patients (GA patients [12]): 20%
geometric mean half-life of elimination (t1/2) [13]: 108 h

B1: Tesidolumab: an antibody vs. C5 (antibody, chains of the INN, looked up, V domains shown)
VH: EVQLVQSGAEVKKPGSSVKVSCKASGGTFSSYAISWVRQAPGQGLEWMGGIGPFFGTANYAQKFQGRVTITADESTSTAYMELSSLRSEDTAVYYCARDTPYFDYWGQGTLVTVSS
VL: SYELTQPLSVSVALGQTARITCSGDSIPNYYVYWYQQKPGQAPVLVIYDDSNRPSGIPERFSGSNSGNTATLTISRAQAGDEADYYCQSFDSSLNAEVFGGGTKLTVL
Status (clinical trial outcome) [1]: Phase II failed
